Source: patent US6852482B1, “Methods and compositions for inhibiting β-secretase” (Elan Pharmaceuticals, Inc., priority 1995, dated 2005)
Like-named read-outs stand apart in the source and are kept apart here.

Key:
β-secretase [1] = target: T1, β-secretase (Homo sapiens, UniProt P56817); experiment: β-secretase inhibitor assay: purified β-secretase, MBP-C125 SW substrate, ELISA
[2] = target: T2, β-secretase cleavage of APP in membranes from 293 cells transfected with the Swedish variant of APP (Homo sapiens, UniProt P56817); experiment: cell membrane (in situ) β-secretase cleavage of APP, 293SW cell membranes, 192SW immunoblot; format: biochemical
T2 construct: membranes from 293 cells transfected with the Swedish variant of APP (293SWE cells); endogenous in cells; host or cells: 293SW cells (human 293 cells stably transfected with Swedish APP); saponin-extracted P2 membrane pellet
Excerpt: Generation of β-secretase cleaved APP fragments from the endogenous full length APP protein was observed using the 192SW antibody (described above) in membranes from 293 cells transfected with the Swedish variant of APP (293SWE cells). APP fragments may be measured by immunoprecipitation or by immunoblotting. The latter technique is preferred for reasons of convenience.
A semiquantitative assay for the detecting in situ β-secretase cleavage of APP in membranes was developed used to directly identify β-secretase inhibitors. The membrane assay is useful as a primary screen or as a secondary assay to confirm inhibiting activity of potential inhibitors identified in the assays described above.
Cell membrane assays were run as follows. […]
For β-secretase inhibition assays, 10 μl of the test compound of interest at 5 times its desired final concentration, in 500 mM sodium acetate, pH 5.5, and 20% DMSO, was added to 40 μl of the extracted P2 suspension. […] Membranes were blocked in NCS-TBS (10% newborn calf serum, 150 mM sodium chloride, 50 mM Tris, pH 7.5), and analyzed using 192SW, 0.5 μg/ml in NCS-TBS, as primary antibody, horseradish peroxidase-linked anti-rabbit IgG (Amersham) diluted 1:3000 in NCS-TBS as secondary antibody, and ECL reagent (Amersham) as chemilumenescent developer. The 192SW-reactive bands identified by autoradiography were quantitated by densitometry.

β-secretase [3] = target: T1, β-secretase; experiment: binding of substantially purified β-secretase activity to immobilized lectins; parameters: endogenous in cells; host or cells: human 293 cells or human brain; solubilized membrane extract purified by WGA, SP, Q, Con A and Superdex 200 chromatography; conditions: for β-Secretase Binding: immobilized lectins
Procedure: Glycosylation of β-secretase has been investigated using various immobilized lectins, and ability of substantially purified β-secretase activity to bind to them was determined. […] A “−” sign signifies less than 20% binding, “+” between 24-40% binding, “++” between 50-75% binding, and “+++”>75% binding.

[4] = concentration of inhibitor giving 50% inhibition of control activity

T1 sequence (P56817 46-501): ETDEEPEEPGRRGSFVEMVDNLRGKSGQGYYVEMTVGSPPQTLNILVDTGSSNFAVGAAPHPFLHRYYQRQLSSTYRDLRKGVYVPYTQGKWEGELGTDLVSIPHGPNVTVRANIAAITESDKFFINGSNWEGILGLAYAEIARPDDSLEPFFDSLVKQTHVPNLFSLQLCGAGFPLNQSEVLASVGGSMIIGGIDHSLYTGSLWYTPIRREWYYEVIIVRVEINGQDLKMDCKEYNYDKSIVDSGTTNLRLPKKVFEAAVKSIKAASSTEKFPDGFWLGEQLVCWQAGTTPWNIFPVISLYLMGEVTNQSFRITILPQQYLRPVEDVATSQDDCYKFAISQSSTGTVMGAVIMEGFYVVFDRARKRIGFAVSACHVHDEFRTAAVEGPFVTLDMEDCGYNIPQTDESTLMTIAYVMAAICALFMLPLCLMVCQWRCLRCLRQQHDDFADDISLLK

Molecule | IC50 (β-secretase [1]; [4]) [mM] | β-Secretase Binding (β-secretase [3]) | also measured
Nc1c(/N=N/c2ccc(-c3ccc(/N=N/c4cc(S(=O)(=O)O)c5ccccc5c4N)cc3)cc2)cc(S(=O)(=O)O)c2ccccc12 [Congo Red] | – | – | activity in the ELISA assay (β-secretase [1]; ELISA assay): much more potent than an inactive control compound; activity in the in situ assay [2]: much more potent than an inactive control compound
[Cu+2] [Cu] | 2 | – | –
[Zn+2] [Zn] | 3 | – | –
CCCCC(NC(=O)C=[N+]=[N-])C(=O)OC (stereo not shown) [diazoacetylnorleucyl-methyl ester] | – | – | IC50 (β-secretase [1]): > 5 mM
c1cnc2c(c1)ccc1cccnc12 [o-phenanthroline] | 7 | – | inhibition of β-secretase activity (β-secretase [1]; summary of Table 3): inhibits poorly
m-phenanthroline | 7 | – | –
wheat germ (WGA): immobilized lectin | – | + + + | binding of β-secretase activity (β-secretase [3]): quantitatively
wheat germ - succinylated (SWGA): immobilized lectin | – | + (between 24-40% binding) | –
lentil (LCA): immobilized lectin (protein) chain 1: TETTSFSITKFSPDQKNLIFQGDGYTTKGKLTLTKAVKSTVGRALYSTPIHIWDRDTGNVANFVTSFTFVIDAPSSYNVADEFTFFIAPVDTKPQTGGGYLGVFNSKEYDKTSQTVAVEFDTFYNAAWDPSNKERHIGIDVNSIKSVNTKSWNLQNGERANVVIAFNAATNVLTVTLTYP chain 2: VTSYTLNEVVPLKDVVPEWVRIGFSATTGAEFAAHEVHSWSFHSELGGTSSS | – | + (between 24-40% binding) | –
peanut (PNA): immobilized lectin (protein, UniProt P02872 24-273, looked up, immobilized, immobilized lectin) Galactose-binding lectin: AETVSFNFNSFSEGNPAINFQGDVTVLSNGNIQLTNLNKVNSVGRVLYAMPVRIWSSATGNVASFLTSFSFEMKDIKDYDPADGIIFFIAPEDTQIPAGSIGGGTLGVSDTKGAGHFVGVEFDTYSNSEYNDPPTDHVGIDVNSVDSVKTVPWNSVSGAVVKVTVIYDSSTKTLSVAVTNDNGDITTIAQVVDLKAKLPERVKFGFSASGSLGGRQIHLIRSWSFTSTLITTTRRSIDNNEKKIMNMASA | – | + (between 24-40% binding) | –
